Test results: patent publication US8030498B2, “Benzoylpyrazole compounds and herbicides containing them” (Ishihara Sangyo Kaisha, Ltd., priority 2005, dated 2011)

Experiments:
[1] = system: redroot pigweed; test: Test Example 2: soil application on the day after sowing, growth inhibition rate, redroot pigweed; assay type: in vivo, Amaranthus retroflexus L.; conditions: 250 g/ha active ingredient, observed on 19th to 24th day
Summary of the method: (§1)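 Pre-emergence soil treatment: one day post-sowing in upland soil, compound formulations at set active-ingredient rates were applied in 500 L/ha water. Visual rating of growth inhibition (0% untreated-equivalent to 100% complete kill) followed on days 19–24 after application.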

[2] = system: wheat; test: Test Example 2: soil application on the day after sowing, growth inhibition rate, wheat; assay type: in vivo, Triticum spp.; conditions: 250 g/ha active ingredient, observed on 19th to 24th day
Summary of the method: as §1

[3] = system: barnyardgrass (Echinochloa crus-galli L.); test: Test Example 1: foliar treatment, growth inhibition rate, barnyardgrass; assay type: in vivo; conditions: visually observed 17th to 23rd day after application
Summary of the method: (§2)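 Plants grown in upland soil in pots were sprayed on the foliage at set leaf stages (corn 2.0–3.5, greenfoxtail 1.0–3.0, rice 1.0–2.5, wheat 1.7–3.4 leaves) with wettable powder or emulsifiable concentrate formulations diluted in water at 500 L/ha plus 0.1 vol % spreader. Growth inhibition was scored visually 17–23 days later.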

[4] = system: rice (Oryza sativa L.); test: Test Example 1: foliar treatment, growth inhibition rate, rice; assay type: in vivo; conditions: visually observed 17th to 23rd day after application
Summary of the method: (§3)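 Seeds were sown in upland field soil in pots. At the target leaf stage (corn 2.0–3.5; greenfoxtail 1.0–3.0; rice 1.0–2.5; wheat 1.7–3.4), the formulated compound, diluted at a water volume of 500 L/ha with 0.1 vol % spreader, was applied by small sprayer. Plants were rated by eye on days 17–23.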

[5] = system: crabgrass (Digitaria sanguinalis L.); test: Test Example 1: foliar treatment, growth inhibition rate, crabgrass; assay type: in vivo; conditions: visually observed 17th to 23rd day after application
Summary of the method: (§4)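 Visual scoring of growth inhibition, 0% (untreated) to 100% (complete kill), on days 17–23 following post-emergence spray of formulated compound in water (500 L/ha, 0.1 vol % spreader); plants treated at set leaf stages, e.g. corn 2.0–3.5, wheat 1.7–3.4.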

[6] = system: soybean (Glycine max Merr.); test: Test Example 1: foliar treatment, growth inhibition rate, soybean; assay type: in vivo; conditions: visually observed 17th to 23rd day after application
Summary of the method: as §4

[7] = system: velvetleaf; test: Test Example 2: soil application on the day after sowing, growth inhibition rate, velvetleaf; assay type: in vivo, Abutilon theophrasti MEDIC.; conditions: 250 g/ha active ingredient, observed on 19th to 24th day
Summary of the method: as §1

[8] = system: wheat (Triticum spp.); test: Test Example 1: foliar treatment, growth inhibition rate, wheat; assay type: in vivo; conditions: visually observed 17th to 23rd day after application
Summary of the method: as §3

[9] = system: barnyardgrass; test: Test Example 2: soil application on the day after sowing, growth inhibition rate, barnyardgrass; assay type: in vivo, Echinochloa crus-galli L.; conditions: 250 g/ha active ingredient, observed on 19th to 24th day
Summary of the method: as §1

[10] = system: greenfoxtail; test: Test Example 2: soil application on the day after sowing, growth inhibition rate, greenfoxtail; assay type: in vivo, Setaria viridis L.; conditions: 250 g/ha active ingredient, observed on 19th to 24th day
Summary of the method: as §1

[11] = system: crabgrass; test: Test Example 2: soil application on the day after sowing, growth inhibition rate, crabgrass; assay type: in vivo, Digitaria sanguinalis L.; conditions: 250 g/ha active ingredient, observed on 19th to 24th day
Summary of the method: as §1

[12] = system: prickly sida (Sida spinosa L.); test: Test Example 1: foliar treatment, growth inhibition rate, prickly sida; assay type: in vivo; conditions: visually observed 17th to 23rd day after application
Summary of the method: as §4

[13] = system: corn (Zea mays L.); test: Test Example 1: foliar treatment, growth inhibition rate, corn; assay type: in vivo; conditions: visually observed 17th to 23rd day after application
Summary of the method: as §3

[14] = system: corn; test: Test Example 2: soil application on the day after sowing, growth inhibition rate, corn; assay type: in vivo, Zea mays L.; conditions: 250 g/ha active ingredient, observed on 19th to 24th day
Summary of the method: as §1

[15] = system: redroot pigweed (Amaranthus retroflexus L.); test: Test Example 1: foliar treatment, growth inhibition rate, redroot pigweed; assay type: in vivo; conditions: visually observed 17th to 23rd day after application
Summary of the method: as §4

[16] = system: rice; test: Test Example 2: soil application on the day after sowing, growth inhibition rate, rice; assay type: in vivo, Oryza sativa L.; conditions: 250 g/ha active ingredient, observed on 19th to 24th day
Summary of the method: as §1

[17] = system: greenfoxtail (Setaria viridis L.); test: Test Example 1: foliar treatment, growth inhibition rate, greenfoxtail; assay type: in vivo; conditions: visually observed 17th to 23rd day after application
Summary of the method: as §3

[18] = system: velvetleaf (Abutilon theophrasti MEDIC.); test: Test Example 1: foliar treatment, growth inhibition rate, velvetleaf; assay type: in vivo; conditions: visually observed 17th to 23rd day after application
Summary of the method: as §2

[19] = system: prickly sida; test: Test Example 2: soil application on the day after sowing, growth inhibition rate, prickly sida; assay type: in vivo, Sida spinosa L.; conditions: 250 g/ha active ingredient, observed on 19th to 24th day
Summary of the method: as §1

[20] = system: soybean; test: Test Example 2: soil application on the day after sowing, growth inhibition rate, soybean; assay type: in vivo, Glycine max Merr.; conditions: 250 g/ha active ingredient, observed on 19th to 24th day
Summary of the method: as §1

| Compound | Growth inhibition rate (%) redroot pigweed [1] [%] | Growth inhibition rate (%) Wheat [2] [%] | Growth inhibition rate (%) Velvetleaf [7] [%] | Growth inhibition rate (%) Barnyardgrass [9] [%] | Growth inhibition rate (%) Greenfoxtail [10] [%] | Growth inhibition rate (%) Crabgrass [11] [%] | Growth inhibition rate (%) Corn [14] [%] | Growth inhibition rate (%) Rice [16] [%] | Growth inhibition rate (%) Prickly sida [19] [%] | Growth inhibition rate (%) Soybean [20] [%] | Growth inhibition rate (%) Barnyardgrass ([3]; 31 g/ha active ingredient) [%] | Growth inhibition rate (%) Rice ([4]; 31 g/ha active ingredient) [%] | Growth inhibition rate (%) Crabgrass ([5]; 31 g/ha active ingredient) [%] | Growth inhibition rate (%) Soybean ([6]; 31 g/ha active ingredient) [%] | Growth inhibition rate (%) Wheat ([8]; 31 g/ha active ingredient) [%] | Growth inhibition rate (%) Prickly sida ([12]; 31 g/ha active ingredient) [%] | Growth inhibition rate (%) Corn ([13]; 31 g/ha active ingredient) [%] | Growth inhibition rate (%) redroot pigweed ([15]; 31 g/ha active ingredient) [%] | Growth inhibition rate (%) Greenfoxtail ([17]; 31 g/ha active ingredient) [%] | Growth inhibition rate (%) Velvetleaf ([18]; 31 g/ha active ingredient) [%] | also measured |
| --- | --- | --- | --- | --- | --- | --- | --- | --- | --- | --- | --- | --- | --- | --- | --- | --- | --- | --- | --- | --- | --- |
| CCC(C)SC(=O)Oc1c(C(=O)c2ccc(S(C)(=O)=O)c(C(=O)OC)c2Cl)cnn1CC (centres unmarked) [compound 220] | 100 | 0 | 95 | 95 | 100 | 95 | 0 | 100 | 95 | 0 |  |  |  |  |  |  |  |  |  |  | Growth inhibition rate (%) Barnyardgrass ([3]; 63 g/ha active ingredient): 100%; Growth inhibition rate (%) Rice ([4]; 63 g/ha active ingredient): 80%; Growth inhibition rate (%) Crabgrass ([5]; 63 g/ha active ingredient): 60%; Growth inhibition rate (%) Soybean ([6]; 63 g/ha active ingredient): 100%; Growth inhibition rate (%) Wheat ([8]; 63 g/ha active ingredient): 0%; Growth inhibition rate (%) Prickly sida ([12]; 63 g/ha active ingredient): 90%; Growth inhibition rate (%) Corn ([13]; 63 g/ha active ingredient): 0%; Growth inhibition rate (%) redroot pigweed ([15]; 63 g/ha active ingredient): 100%; Growth inhibition rate (%) Greenfoxtail ([17]; 63 g/ha active ingredient): 70%; Growth inhibition rate (%) Velvetleaf ([18]; 63 g/ha active ingredient): 90% |
| CCSC(=O)Oc1c(C(=O)c2ccc(S(C)(=O)=O)c(CN(C)CC#N)c2C)cnn1C [compound 210] | 20 | 0 | 0 | 0 | 0 | 10 | 0 | 0 | 40 | 0 | 80 | 50 | 30 | 50 | 0 | 70 | 0 | 10 | 50 | 60 |  |
| CCSC(=O)Oc1c(C(=O)c2ccc(S(C)(=O)=O)c(C(=O)OC)c2Cl)cnn1CC [compound 95] | 100 | 0 | 80 | 100 | 100 | 95 | 0 | 98 | 95 | 0 | 100 | 90 | 90 | 95 | 20 | 80 | 10 | 100 | 100 | 90 |  |
| CCn1ncc(C(=O)c2ccc(S(C)(=O)=O)c(C(=O)OC)c2C)c1OC(=O)SC(C)C [compound 87] | 95 | 0 | 50 | 80 | 70 | 90 | 0 | 80 | 70 | 0 | 95 | 90 | 100 | 95 | 10 | 75 | 10 | 100 | 100 | 95 |  |
